Data as given in ChEMBL document CHEMBL5465560, “Selectivity Literature for EUbOPEN Chemogenomic Library” (2024).

Legend:
[1] = target: T1, Inhibitor of nuclear factor kappa-B kinase subunit beta (Homo sapiens) (UniProt O14920); test: Selectivity interaction (ActivX KiNativ screen (kinase selectivity in THP-1 cell lysates)) EUB0000639a IKBKB; assay type: subcellular; conditions: lysate, at 0.04 µM
T1 sequence (whole entry): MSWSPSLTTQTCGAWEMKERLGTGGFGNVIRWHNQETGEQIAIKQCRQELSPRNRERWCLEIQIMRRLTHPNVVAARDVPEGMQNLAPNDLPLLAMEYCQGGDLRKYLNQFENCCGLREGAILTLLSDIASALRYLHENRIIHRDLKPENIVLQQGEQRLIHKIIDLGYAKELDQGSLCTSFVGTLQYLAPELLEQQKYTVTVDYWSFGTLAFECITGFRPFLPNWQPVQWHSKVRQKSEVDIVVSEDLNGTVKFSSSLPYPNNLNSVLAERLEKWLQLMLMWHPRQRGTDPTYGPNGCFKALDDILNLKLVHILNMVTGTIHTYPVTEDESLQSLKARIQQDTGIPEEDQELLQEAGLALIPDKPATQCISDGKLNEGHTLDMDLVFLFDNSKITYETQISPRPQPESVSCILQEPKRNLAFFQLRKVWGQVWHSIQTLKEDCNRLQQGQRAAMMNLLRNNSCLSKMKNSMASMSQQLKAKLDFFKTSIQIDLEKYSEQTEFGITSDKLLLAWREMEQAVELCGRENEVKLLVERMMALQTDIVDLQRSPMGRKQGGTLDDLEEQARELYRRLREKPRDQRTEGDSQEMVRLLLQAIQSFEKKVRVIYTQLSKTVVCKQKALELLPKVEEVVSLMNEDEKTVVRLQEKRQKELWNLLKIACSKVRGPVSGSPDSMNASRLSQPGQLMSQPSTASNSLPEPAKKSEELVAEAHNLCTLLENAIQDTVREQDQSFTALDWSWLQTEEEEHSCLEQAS

[2] = target: Mitogen-activated protein kinase 1 (Homo sapiens, UniProt P28482); test: Selectivity interaction (Kinase panel (DSF assay)) EUB0001558a MAPK1
Sequence of Mitogen-activated protein kinase 1 (P28482 whole entry): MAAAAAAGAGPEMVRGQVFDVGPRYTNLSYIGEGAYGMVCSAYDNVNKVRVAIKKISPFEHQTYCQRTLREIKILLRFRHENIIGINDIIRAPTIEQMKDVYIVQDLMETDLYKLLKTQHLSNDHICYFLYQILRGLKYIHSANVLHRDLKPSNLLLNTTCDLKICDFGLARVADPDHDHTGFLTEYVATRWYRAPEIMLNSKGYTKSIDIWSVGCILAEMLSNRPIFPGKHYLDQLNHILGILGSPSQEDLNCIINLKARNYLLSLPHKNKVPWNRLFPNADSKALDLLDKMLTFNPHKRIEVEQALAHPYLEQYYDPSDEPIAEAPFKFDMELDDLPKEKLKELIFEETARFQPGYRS

[3] = target: T2, Histone-arginine methyltransferase CARM1 (Homo sapiens) (UniProt Q86X55); conditions: KMS-26, at 3 µM
T2 sequence (whole entry): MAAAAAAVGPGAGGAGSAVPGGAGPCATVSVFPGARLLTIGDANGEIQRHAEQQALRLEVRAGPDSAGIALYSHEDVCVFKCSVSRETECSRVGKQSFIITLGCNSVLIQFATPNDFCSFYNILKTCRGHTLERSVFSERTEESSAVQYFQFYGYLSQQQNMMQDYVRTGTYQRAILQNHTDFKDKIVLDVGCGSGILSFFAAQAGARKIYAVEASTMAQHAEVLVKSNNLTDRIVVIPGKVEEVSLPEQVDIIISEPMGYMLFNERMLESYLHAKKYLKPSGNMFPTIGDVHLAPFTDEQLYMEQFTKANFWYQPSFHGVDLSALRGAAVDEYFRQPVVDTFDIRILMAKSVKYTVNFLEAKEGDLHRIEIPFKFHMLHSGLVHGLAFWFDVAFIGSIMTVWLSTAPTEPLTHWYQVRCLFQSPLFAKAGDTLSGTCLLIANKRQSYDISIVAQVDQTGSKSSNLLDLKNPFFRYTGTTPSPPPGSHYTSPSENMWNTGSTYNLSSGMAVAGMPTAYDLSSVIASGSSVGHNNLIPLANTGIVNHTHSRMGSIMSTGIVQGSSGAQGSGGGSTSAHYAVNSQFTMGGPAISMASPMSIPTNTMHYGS

[4] = target: Histone-lysine N-methyltransferase SETDB1 (Homo sapiens) (UniProt Q15047); conditions: at 10 µM
[5] = target: Dual specificity protein kinase CLK3 (Homo sapiens, UniProt P49761); test: Selectivity interaction (KinomeScan (DiscoverX)) EUB0000229b CLK3; conditions: at 10 µM
Sequence of Dual specificity protein kinase CLK3 (P49761 whole entry, looked up): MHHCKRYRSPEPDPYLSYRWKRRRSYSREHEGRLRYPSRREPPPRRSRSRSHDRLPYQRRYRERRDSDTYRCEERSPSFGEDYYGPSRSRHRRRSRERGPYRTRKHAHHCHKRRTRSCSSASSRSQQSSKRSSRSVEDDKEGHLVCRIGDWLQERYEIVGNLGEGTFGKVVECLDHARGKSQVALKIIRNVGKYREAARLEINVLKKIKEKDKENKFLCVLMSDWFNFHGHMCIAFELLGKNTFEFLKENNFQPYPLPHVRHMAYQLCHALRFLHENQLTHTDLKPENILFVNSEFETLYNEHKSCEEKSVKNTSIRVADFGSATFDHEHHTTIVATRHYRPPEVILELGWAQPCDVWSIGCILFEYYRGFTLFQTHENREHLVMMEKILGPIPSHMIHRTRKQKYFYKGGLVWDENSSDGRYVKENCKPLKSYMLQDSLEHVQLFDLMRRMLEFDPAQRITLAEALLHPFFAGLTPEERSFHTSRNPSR

[6] = target: T3, Mitogen-activated protein kinase kinase kinase 15 (Homo sapiens) (UniProt Q6ZN16); test: Selectivity interaction (KinomeScan (DiscoverX)) EUB0000229b MAP3K15; conditions: at 10 µM
T3 sequence (whole entry): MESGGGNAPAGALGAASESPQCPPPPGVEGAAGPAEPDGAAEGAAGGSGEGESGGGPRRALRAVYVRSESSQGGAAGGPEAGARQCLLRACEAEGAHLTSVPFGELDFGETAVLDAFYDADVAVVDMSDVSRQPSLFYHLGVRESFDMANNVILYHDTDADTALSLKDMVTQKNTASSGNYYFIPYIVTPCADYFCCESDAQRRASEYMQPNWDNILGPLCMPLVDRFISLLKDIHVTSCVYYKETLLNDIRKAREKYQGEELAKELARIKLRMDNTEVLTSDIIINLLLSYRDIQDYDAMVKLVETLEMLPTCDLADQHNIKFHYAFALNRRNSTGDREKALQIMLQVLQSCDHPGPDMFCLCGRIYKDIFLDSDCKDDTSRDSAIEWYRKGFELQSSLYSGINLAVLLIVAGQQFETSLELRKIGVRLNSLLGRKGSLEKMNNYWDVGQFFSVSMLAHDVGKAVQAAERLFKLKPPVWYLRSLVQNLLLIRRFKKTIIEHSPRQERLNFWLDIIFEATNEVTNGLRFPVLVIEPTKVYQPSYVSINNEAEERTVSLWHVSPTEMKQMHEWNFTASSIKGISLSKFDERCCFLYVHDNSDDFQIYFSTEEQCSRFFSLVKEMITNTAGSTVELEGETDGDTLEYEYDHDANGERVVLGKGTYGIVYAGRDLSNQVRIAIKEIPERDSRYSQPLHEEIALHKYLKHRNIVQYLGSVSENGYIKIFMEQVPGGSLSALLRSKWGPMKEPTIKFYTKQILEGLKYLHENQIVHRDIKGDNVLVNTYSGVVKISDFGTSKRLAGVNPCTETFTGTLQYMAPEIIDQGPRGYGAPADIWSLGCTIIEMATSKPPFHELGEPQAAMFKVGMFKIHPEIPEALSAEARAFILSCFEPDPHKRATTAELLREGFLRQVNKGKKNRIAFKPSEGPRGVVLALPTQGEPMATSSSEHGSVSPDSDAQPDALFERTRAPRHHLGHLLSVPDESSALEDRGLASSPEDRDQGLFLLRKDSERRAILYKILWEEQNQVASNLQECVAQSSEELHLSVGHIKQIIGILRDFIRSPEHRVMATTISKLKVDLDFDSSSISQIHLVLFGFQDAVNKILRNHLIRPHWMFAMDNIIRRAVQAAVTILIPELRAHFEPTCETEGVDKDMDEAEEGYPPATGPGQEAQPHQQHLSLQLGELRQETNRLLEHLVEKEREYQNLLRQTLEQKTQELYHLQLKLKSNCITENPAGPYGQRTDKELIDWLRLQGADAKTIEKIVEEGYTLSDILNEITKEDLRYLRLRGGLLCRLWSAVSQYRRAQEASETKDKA

CC[C@@H]1[C@H](F)C(=O)N[C@@H]1COc1nccc2cc(C(N)=O)c(OC)cc12 [ZIMLOVISERTIB]
% of inhibition [1]: -3.9%

CC(C)(O)[C@H](F)CN1Cc2cc(NC(=O)c3cnn4cccnc34)c(N3CCOCC3)cc2C1=O
dTM [2]: 0.4 K

CNCCN1CCC(c2cc(CN(C)C(=O)c3cccc(Oc4ccccc4)c3)ccn2)CC1
% of growth rate [3]: -19.5% | % activity [4]: > 90%

COc1cc(N(C)c2ccnc3ccc(C(F)(F)F)cc23)cc(OC)c1OC
% binding [5]: 59% | % binding [6]: 100%
